We go through three compounds from ChEMBL document CHEMBL5696442, “Discovery of type II inhibitors of TGFβ-activated kinase 1 (TAK1) and mitogen-activated protein kinase kinase kinase kinase 2 (MAP4K2)” (J Med Chem, 2015).

Experiment [1] has as its target Microtubule-associated serine/threonine-protein kinase 2 (Homo sapiens) (UniProt Q6P0Q8). Nature of the experiment: Inhibition of MAST2 Lys2 labeling site harbouring DLKPDNLLITSMGHIK in human Huh-7 cells at 1 uM by KiNativ Profiling analysis relative to control. It is filed as cell-based.
For experiment [2], the target named is Calcium/calmodulin-dependent protein kinase type II subunit gamma (Homo sapiens) (UniProt Q13555). Nature of the experiment: Inhibition of CaMK2g Lys1 labeling site harbouring TSTQEYAAKIINTK in human A-375 cells at 5 uM by KiNativ Profiling analysis relative to control. It is filed as cell-based.
In experiment [3] the target is T1, Dual specificity mitogen-activated protein kinase kinase 6 (Homo sapiens) (UniProt P52564).
T1 sequence (whole entry): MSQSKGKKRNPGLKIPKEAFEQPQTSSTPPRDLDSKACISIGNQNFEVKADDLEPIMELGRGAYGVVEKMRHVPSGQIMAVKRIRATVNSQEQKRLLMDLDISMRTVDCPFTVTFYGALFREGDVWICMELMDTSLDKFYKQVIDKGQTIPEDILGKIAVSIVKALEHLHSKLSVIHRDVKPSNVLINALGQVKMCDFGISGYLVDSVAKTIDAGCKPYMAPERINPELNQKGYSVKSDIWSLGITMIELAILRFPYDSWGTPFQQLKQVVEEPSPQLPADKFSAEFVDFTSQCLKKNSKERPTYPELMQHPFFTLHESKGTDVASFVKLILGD
Nature of the experiment: Inhibition of MAP2K6 Lys1 labeling site in human A-375 cells at 5 uM by KiNativ Profiling analysis relative to control. The class given is cell-based.

The target of experiment [4] is MAP/microtubule affinity-regulating kinase 4 (Homo sapiens) (UniProt Q96L34). Nature of the experiment: Inhibition of MARK4 (unknown origin) at 1 uM by Ambit Kinomescan binding assay relative to control.
Experiment [5] concerns the target Epithelial discoidin domain-containing receptor 1 (Homo sapiens) (UniProt Q08345). The experiment can be described thus: Inhibition of DDR1 (unknown origin) at 10 uM by Ambit Kinomescan binding assay; values are per cent of control.
Experiment [6] deals with Tyrosine-protein kinase ABL (Homo sapiens) (UniProt P00519+P42684). Nature of the experiment: Inhibition of ABL1/2 K1 labeling site in human Huh-7 cells at 10 uM by KiNativ Profiling analysis relative to control. The class given is cell-based.
For experiment [7], the target named is T2, Mitogen-activated protein kinase kinase kinase 6 (Homo sapiens) (UniProt O95382).
T2 sequence (whole entry): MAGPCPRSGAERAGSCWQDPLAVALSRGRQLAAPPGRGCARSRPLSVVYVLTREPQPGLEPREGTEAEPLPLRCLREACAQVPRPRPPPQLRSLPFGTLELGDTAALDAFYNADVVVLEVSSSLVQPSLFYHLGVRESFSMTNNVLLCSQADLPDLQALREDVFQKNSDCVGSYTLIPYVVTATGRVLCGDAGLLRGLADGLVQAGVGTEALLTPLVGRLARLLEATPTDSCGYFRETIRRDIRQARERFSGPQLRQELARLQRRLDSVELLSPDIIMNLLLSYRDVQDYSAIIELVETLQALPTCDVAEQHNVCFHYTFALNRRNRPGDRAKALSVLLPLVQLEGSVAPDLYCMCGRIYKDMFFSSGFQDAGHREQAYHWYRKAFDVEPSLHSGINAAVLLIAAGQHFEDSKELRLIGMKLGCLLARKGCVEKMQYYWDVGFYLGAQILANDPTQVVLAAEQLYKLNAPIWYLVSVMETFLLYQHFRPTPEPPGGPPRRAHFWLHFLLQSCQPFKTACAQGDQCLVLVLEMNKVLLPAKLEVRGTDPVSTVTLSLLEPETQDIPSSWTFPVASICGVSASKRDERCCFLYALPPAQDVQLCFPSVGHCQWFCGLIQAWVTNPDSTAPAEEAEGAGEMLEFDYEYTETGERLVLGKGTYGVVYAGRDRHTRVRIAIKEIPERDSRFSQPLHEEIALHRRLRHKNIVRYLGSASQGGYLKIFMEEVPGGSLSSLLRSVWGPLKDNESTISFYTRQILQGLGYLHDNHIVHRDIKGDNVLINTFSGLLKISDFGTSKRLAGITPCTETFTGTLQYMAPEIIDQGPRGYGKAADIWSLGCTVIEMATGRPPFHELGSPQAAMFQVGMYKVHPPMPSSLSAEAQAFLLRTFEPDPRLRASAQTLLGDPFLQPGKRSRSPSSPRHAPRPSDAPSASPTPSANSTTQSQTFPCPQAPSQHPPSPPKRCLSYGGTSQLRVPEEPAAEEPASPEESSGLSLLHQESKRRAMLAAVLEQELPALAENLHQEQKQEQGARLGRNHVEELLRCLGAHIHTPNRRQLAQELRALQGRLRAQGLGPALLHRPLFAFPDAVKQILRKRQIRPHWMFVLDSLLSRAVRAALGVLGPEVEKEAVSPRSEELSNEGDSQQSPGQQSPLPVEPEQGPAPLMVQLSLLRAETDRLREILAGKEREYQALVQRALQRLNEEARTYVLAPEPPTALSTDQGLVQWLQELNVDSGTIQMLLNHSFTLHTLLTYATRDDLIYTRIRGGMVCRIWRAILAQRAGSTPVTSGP
Nature of the experiment: Inhibition of MAP3K6 Lys1 labeling site harbouring IAIKEIPER in human A-375 cells at 0.05 uM by KiNativ Profiling analysis relative to control. The class given is cell-based.

Experiment [8] addresses Platelet-derived growth factor receptor beta (Homo sapiens) (UniProt P09619). The experiment can be described thus: Inhibition of PDGFRB (unknown origin) at 10 uM by Ambit Kinomescan binding assay relative to control.

Chain of Tyrosine-protein kinase ABL (Homo sapiens) (P00519 whole entry, looked up): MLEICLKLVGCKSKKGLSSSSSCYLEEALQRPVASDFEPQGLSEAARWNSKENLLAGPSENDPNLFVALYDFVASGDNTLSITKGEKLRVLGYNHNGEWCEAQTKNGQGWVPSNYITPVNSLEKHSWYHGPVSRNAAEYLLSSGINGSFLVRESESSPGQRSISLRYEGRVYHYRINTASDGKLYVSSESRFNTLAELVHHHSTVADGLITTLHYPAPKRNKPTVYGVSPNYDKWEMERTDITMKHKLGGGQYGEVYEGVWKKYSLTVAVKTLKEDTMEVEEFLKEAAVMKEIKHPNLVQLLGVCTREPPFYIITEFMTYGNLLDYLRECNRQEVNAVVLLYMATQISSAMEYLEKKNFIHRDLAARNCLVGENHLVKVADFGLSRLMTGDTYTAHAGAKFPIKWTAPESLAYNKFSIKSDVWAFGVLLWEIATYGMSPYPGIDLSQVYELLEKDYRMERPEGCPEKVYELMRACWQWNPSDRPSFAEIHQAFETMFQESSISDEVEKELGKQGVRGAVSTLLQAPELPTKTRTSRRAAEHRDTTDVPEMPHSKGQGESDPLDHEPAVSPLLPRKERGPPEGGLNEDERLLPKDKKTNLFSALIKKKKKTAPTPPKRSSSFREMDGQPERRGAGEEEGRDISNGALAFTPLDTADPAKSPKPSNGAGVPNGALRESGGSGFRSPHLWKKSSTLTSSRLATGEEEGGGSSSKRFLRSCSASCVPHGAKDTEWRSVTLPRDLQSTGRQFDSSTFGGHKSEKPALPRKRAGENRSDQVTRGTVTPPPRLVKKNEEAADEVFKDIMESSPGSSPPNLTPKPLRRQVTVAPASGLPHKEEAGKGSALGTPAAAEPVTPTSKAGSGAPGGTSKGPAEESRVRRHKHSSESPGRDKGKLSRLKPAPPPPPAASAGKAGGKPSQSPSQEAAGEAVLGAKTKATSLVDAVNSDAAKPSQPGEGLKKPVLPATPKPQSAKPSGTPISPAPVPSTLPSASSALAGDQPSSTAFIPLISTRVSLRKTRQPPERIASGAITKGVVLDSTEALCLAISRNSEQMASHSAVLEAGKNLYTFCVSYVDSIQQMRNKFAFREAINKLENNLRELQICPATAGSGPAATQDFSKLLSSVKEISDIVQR
Chain of Tyrosine-protein kinase ABL (Homo sapiens) (P42684 whole entry, looked up): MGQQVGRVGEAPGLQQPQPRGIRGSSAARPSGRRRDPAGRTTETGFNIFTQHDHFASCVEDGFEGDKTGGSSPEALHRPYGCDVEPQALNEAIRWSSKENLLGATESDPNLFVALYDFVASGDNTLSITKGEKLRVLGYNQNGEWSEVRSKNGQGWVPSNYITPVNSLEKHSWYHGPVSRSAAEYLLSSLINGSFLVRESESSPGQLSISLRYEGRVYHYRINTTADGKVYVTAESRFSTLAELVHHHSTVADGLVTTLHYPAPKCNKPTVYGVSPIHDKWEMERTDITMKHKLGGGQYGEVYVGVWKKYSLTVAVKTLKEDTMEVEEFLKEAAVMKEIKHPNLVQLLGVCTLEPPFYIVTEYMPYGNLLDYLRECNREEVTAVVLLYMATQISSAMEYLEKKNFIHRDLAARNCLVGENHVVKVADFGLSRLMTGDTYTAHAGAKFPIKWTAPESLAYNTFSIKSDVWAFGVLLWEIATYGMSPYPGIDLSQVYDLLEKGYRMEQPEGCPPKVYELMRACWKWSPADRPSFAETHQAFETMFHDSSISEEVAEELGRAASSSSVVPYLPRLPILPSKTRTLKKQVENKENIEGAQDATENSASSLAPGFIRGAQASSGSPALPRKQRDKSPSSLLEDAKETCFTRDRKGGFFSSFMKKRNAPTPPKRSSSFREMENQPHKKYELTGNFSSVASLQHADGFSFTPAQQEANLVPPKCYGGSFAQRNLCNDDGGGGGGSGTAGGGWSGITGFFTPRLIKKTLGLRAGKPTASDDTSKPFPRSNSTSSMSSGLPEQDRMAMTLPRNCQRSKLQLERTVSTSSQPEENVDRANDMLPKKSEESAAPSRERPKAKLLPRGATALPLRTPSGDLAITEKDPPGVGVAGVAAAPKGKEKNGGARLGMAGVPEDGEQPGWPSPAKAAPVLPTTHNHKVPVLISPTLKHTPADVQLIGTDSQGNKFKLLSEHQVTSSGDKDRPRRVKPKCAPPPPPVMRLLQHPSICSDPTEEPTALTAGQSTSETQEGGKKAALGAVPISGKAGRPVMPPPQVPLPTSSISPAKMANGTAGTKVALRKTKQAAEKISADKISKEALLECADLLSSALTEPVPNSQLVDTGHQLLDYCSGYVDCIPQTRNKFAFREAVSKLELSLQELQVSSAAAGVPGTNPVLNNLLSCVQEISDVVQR
Chain of Microtubule-associated serine/threonine-protein kinase 2 (Homo sapiens) (Q6P0Q8 whole entry): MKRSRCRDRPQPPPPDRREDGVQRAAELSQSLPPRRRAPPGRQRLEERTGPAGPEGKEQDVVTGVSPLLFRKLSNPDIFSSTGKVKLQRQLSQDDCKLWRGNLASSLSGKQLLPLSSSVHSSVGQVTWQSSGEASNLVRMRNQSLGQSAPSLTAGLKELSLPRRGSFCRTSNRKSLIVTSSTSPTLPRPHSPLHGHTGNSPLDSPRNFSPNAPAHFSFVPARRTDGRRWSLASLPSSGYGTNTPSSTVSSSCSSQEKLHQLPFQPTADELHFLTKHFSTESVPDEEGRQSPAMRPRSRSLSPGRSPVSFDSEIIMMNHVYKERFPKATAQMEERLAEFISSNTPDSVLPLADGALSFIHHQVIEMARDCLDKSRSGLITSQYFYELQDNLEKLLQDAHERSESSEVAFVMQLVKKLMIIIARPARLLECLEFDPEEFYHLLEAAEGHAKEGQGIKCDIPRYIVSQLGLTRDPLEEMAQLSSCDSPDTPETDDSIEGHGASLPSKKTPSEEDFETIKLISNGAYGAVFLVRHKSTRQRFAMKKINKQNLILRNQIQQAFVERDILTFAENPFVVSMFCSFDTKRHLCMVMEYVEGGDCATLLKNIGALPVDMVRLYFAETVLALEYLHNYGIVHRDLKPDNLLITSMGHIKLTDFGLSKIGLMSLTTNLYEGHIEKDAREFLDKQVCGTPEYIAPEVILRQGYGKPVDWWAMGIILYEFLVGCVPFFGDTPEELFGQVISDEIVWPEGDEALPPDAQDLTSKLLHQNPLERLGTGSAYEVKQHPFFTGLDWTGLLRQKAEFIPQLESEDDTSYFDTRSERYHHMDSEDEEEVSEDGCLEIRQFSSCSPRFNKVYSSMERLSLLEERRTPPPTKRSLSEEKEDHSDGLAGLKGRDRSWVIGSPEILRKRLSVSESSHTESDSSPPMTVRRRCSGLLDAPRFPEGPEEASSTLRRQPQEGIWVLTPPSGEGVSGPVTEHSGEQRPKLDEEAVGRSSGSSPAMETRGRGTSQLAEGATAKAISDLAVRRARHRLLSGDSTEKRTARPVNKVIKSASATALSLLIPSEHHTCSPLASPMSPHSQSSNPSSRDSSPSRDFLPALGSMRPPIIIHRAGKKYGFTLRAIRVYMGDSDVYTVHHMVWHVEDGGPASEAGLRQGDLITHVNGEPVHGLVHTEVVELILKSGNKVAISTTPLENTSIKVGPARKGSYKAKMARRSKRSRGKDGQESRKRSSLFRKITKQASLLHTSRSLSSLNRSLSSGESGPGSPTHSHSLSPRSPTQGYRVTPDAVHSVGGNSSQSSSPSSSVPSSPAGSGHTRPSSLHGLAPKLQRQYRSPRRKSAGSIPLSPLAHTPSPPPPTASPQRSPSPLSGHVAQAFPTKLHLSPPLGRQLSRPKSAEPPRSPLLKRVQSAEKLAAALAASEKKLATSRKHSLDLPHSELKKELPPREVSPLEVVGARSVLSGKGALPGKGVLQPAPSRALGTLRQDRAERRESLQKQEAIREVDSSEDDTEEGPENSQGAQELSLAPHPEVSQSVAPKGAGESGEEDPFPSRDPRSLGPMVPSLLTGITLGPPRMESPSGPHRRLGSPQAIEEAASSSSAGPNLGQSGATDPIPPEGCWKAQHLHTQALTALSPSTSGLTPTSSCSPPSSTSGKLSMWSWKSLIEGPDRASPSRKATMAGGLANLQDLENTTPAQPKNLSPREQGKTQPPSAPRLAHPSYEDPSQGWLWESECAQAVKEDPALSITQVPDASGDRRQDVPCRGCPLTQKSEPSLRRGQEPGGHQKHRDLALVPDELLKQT
Chain of Epithelial discoidin domain-containing receptor 1 (Homo sapiens) (Q08345 whole entry, the tested form may be a part): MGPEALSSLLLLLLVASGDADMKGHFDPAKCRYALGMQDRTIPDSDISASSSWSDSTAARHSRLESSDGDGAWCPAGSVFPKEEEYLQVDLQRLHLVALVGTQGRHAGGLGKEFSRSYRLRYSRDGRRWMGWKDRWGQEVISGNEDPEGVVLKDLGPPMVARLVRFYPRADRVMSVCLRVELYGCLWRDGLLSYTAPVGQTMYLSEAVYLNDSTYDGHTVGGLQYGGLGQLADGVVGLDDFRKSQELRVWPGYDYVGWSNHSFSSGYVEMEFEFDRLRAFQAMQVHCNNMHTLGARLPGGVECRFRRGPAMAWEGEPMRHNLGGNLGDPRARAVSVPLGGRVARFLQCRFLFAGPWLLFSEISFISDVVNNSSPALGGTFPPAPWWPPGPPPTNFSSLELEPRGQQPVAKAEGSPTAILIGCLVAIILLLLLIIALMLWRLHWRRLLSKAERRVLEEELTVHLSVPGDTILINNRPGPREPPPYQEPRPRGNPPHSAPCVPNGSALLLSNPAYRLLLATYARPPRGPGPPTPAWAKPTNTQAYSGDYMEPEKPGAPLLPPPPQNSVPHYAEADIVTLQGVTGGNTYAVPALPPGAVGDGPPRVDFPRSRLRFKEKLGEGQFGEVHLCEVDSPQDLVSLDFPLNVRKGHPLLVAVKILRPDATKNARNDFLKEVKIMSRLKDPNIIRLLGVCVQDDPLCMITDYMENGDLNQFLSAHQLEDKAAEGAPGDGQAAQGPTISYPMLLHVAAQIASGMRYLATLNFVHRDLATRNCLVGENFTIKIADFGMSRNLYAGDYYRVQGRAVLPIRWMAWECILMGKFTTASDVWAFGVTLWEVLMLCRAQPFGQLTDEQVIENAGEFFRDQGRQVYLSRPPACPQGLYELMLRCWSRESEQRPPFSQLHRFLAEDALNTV

As to `CNc1cc(Oc2cc(C(=O)Nc3cc(N4CCN(C)CC4)cc(C(F)(F)F)c3)ccc2C)ncn1`, the inhibition in experiment [1] came to 53.8%.

`CCN1CCN(Cc2ccc(NC(=O)c3ccc(C)c(/C=C/c4cnc5[nH]ccc5c4OC)c3)cc2C(F)(F)F)CC1`: the inhibition in experiment [2] was 14.6%; in experiment [3], -0.7%; in experiment [4], 81%.

In experiment [5], `CCN1CCN(Cc2ccc(NC(=O)c3ccc(C)c(Oc4ccnc5[nH]ccc45)c3)cc2C(F)(F)F)CC1` came in with a percent of control of 0.05%. Further, the inhibition in experiment [6] worked out at 96%; in experiment [7], 10.8%; in experiment [8], 0%.
